Assay results as given in patent publication US7972793B2, “Methods and compositions for the treatment of psychotic disorders through the identification of the SULT4A1-1 haplotype” (Suregene, LLC, priority 2009, dated 2011).
Marks after values point to notes of the source that are not given here.

Legend:
[1] = test system: CATIE Caucasian subjects; test: Rate of hospitalization due to exacerbation of psychosis in CATIE by SULT4A1-1 status; assay type: in vivo, human; conditions: CATIE Phases 1, 2 and/or 3
Text: For this analysis, the inventors assigned a dichotomous value (positive or negative) for hospitalization status to subjects in each phase of the trial based on only the first hospitalization event for a given patient in that phase.

[2] = test system: CATIE Caucasian schizophrenia patients; test: Time to discontinuation for all causes in the CATIE study; assay type: in vivo, human; conditions: SULT4A1-1 Negative
Text: The primary endpoint for the CATIE study was time to discontinuation for all causes (Lieberman et al., 2005). Thus the inventors evaluated the effect of SULT41-1 status on this important parameter.

[3] = test system: patients, unsegmented populations; conditions: Meta-analysis, Leucht et al. (2009); cited from earlier work
[4] = test system: CATIE Caucasian schizophrenia patients; test: CATIE Phase 1 drug response: change in total PANSS (LOCF), drug switchers, segmented by SULT4A1-1 status; assay type: in vivo, human; conditions: for ≦−20% (number of individuals with this percent change in total PANSS; responders) / ≧−20% (number of individuals with this percent change in total PANSS; non-responders): CATIE Caucasians, LOCF
Text: There are several different metrics for quantifying response in clinical trials of antipsychotic medications. The most commonly used psychometric instrument is the Positive and Negative Syndrome Scale (PANSS), a 30-item semi-quantitative instrument scored by clinical professionals (Kay et al., 1987). The greater the decrease in PANSS score, the better the clinical response. The most direct measure of clinical response is absolute change in PANSS score. In addition to absolute change, the improvement is often reported as a percentage change from baseline PANSS score.
A decrease of at least 20% in total PANSS is one commonly used threshold for response (Leucht et al., 2009).
The design of the CATIE study has been described in detail by others (Lieberman et al., 2005; Stroup et al., 2003). […] A total of 738 subjects consented to provide DNA for genetic study. […] Retrospective genetic analyses, judged to be exempt from human studies requirements by an IRB, were conducted in the current study.
All tested patients were studied using well established clinical endpoints comparing baseline, intermediate, and last observation carried forward (LOCF) for the PANSS scores using CATIE data. LOCF analysis is a commonly used clinical endpoint for clinical trials for neuropsychiatric drugs, with changes in PANSS scores of between negative 20% and negative 30% used as typical endpoints to indicate clinically significant response (Leucht et al., 2009). To remove time on drug as a variable for the CATIE trial, analysis was limited to only those patients who were randomized to a different drug following the initial washout period (drug switchers).
As mentioned previously, the mean change in absolute or percent PANSS provides an important measure of efficacy in patients undergoing antipsychotic treatments. Indeed, many pivotal trials in the psychosis field used absolute and/or percentage change in PANSS Score as the primary endpoint (Leucht et al., 2009). […] Therefore, in addition to examining a categorical definition of clinically significant response, the inventors determined the impact of segmentation by SULT4A1-1 status on the quantitative measure of clinical improvement—delta PANSS.

[5] = test system: CATIE patients with schizophrenia of European ancestry; test: CATIE Phase I percent change of PANSS from baseline (LOCF), linear model with haplotype and drug therapy; assay type: in vivo, human; conditions: Table 18
Text: Genotype and phenotype data for the CATIE trial were recently made available to qualified researchers through The NIMH Center for Collaborative Genetic Studies on Mental Disorders. The inventors evaluated data for 417 CATIE patients with schizophrenia self reported as having exclusively European ancestry. This same patient population was described in a recent study by Sullivan and coworkers, which confirmed that there is no hidden stratification in the sample (Sullivan et al., 2008).
The CATIE clinical data set included baseline PANSS scores based on clinical assessments prior to initiation of the assigned therapy, but following the washout period for any patients previously on antipsychotic medication. Follow up PANSS data for the CATIE trial were collected at each visit as described in detail by others (Stroup et al., 2003). Briefly, the first visit was after one month of treatment, and subsequent visits were at somewhat irregular intervals of approximately three months for up to a total 18 months or until discontinuation of treatment, whichever came first.
For all subsequent analyses, the inventors focused on the single haplotype, designated SULT4A1-1. EM algorithm haplotypes were assigned to each patient using HelixTree software (Version 6.4.1; Golden Helix, Bozeman, Mont.), and each individual was scored as being positive or negative for the presence of the haplotype. The inventors assigned SULT4A1-1 haplotype status to those individuals for which EM algorithm assignment could be made with error probabilities of <1%. This included a total of 395 patients from the CATIE study. With the exception of four of the 395 patients in the CATIE study, SULT4A1-1 haplotype status could be assigned with error probabilities of <1×10-5.
Since follow-up on subjects was not done at uniform time intervals, analysis was done using the last observation for each patient in treatment Phase I of the trial as the measure of response (last observation carried forward, LOCF). Main effect and interaction terms between the SULT4A1-1 haplotype and drug therapy were included in the linear model. A pre-determined set of contrasts for differences in percent change PANSS by haplotype within each drug therapy (three comparisons) and by drug therapy within each haplotype (six comparisons) were evaluated, with adjustment for multiple-comparisons using the step-up false-discovery rate (FDR) controlling procedure (Benjamini and Hochberg, 1995). A sub-analysis omitting those patients who were randomized to the same antipsychotic drug therapy was also conducted. […]

[6] = test system: patients, unsegmented populations; conditions: first generation antipsychotics; Davis et al. (2003); cited from earlier work
[7] = test system: patients, populations not segmented by SULT4A1-1 status; conditions: meta-analysis, Leucht et al. (2009); negative = greater reduction in PANSS; cited from earlier work
[8] = Table 16, 20% decrease in PANSS threshold, SULT4A1-1 positive group (sign not given)

OCCOCCN1CCN(C2=Nc3ccccc3Sc3ccccc32)CC1 [Quetiapine]
HOSP (number of subjects hospitalized) ([1]; SULT4A1-1 Positive): 1
HOSP (rate of hospitalization) ([1]; SULT4A1-1 Positive): (2.9%)
HOSP (number of subjects hospitalized) ([1]; SULT4A1-1 negative): 24
HOSP (rate of hospitalization) ([1]; SULT4A1-1 negative): (19.5%)
HOSP (number of subjects hospitalized) ([1]; Unsegmented): 25
Time to discontinuation, mean time in months [2]: 8.6*** Months
Mean Difference in Total PANSS Score, Olanzapine vs. labelled drug [3]: −3.7
Mean Difference in Total PANSS Score, Olanzapine vs. labelled drug ([4]; CATIE SULT4A1-1 −): −3.8
Mean Difference in Total PANSS Score, Olanzapine vs. labelled drug ([4]; CATIE unsegmented): −6.2
≦−20% (number of individuals with this percent change in total PANSS; responders) ([4]; SULT4A1-1 Negative): 13
≧−20% (number of individuals with this percent change in total PANSS; non-responders) ([4]; SULT4A1-1 Negative): 50
≦−20% (number of individuals with this percent change in total PANSS; responders) ([4]; SULT4A1-1 Positive): 7
≧−20% (number of individuals with this percent change in total PANSS; non-responders) ([4]; SULT4A1-1 Positive): 11
Non Responder (number) [4, 8]: 11
Responder (number) [4, 8]: 7
Difference in percent change in PANSS score ([5]; Complete Sample, SULT4A1-1+ patients, labelled drug vs Risperidone): −1.0%
Difference in percent change in PANSS score ([5]; Complete Sample, same drug, SULT4A1-1+ vs SULT4A1-1−): −5.4%
Difference in percent change in PANSS score ([5]; Patients Randomized to a Different Medication, SULT4A1-1+ patients, labelled drug vs Risperidone): −4.6%
Difference in percent change in PANSS score ([5]; Patients Randomized to a Different Medication, same drug, SULT4A1-1+ vs SULT4A1-1−): −6.8%
Effect Size vs. FGA [6]: 0.01
Effect Size vs. Placebo [7]: −0.42
